Several values for one entry are separate records, joined by “and”; a condition that tells them apart may be missing. Equal entries are not always repeated. Where two headings read alike, the source gives them in different places.
Tests used:
[1] = paper chromatography: migration/release of NAC from monoolein emulsions; assay type: physicochemical; settings: deionized water as solvent, tetrazolium/ammonia detection
Source text: Paper chromatography was utilized to evaluate the release of soluble NAC from the formulations of Examples 1 and 2 using a colorimetric reagent to develop the chromatograms as follows:
Three strips of chromatography paper were marked with pencil to indicate the “origin” and spotted with a small dot of each of the two samples. The third strip was spotted with a drop of aqueous NAC only. Each strip was suspended in a separate jar with deionized water just covering the bottom of the jar. The bottom edge of each paper strip was positioned to be immersed in water, which gradually migrated up the strip. After upward water migration wet approximately 6 to 8 cm of the paper, the “solvent front” was marked with pencil and the strips were allowed to dry completely.
Tetrazolium blue chloride (Sigma no. T4375, lot no. SHBM0991) was dissolved in denatured ethyl alcohol to obtain a 1% solution and transferred to a small spray bottle. The dry chromatography strips were placed in a chemical fume hood, sprayed with the tetrazolium solution, and allowed to dry again. An ammonia chamber was created by coving the bottom of a large glass canister with concentrated ammonium hydroxide and the chromatography paper strips were suspended just above the liquid with the canister covered until a purple color developed, indicating the presence of NAC.

[2] = tested on: bacteria; settings: in vitro; value in brackets; cited from earlier work
[3] = tested on: epithelial cells; settings: in vitro, cited from earlier work

| Compound | Rf value of NAC [1] | migration of NAC from the origin [1] | minimum inhibitory concentration (MIC) required to kill bacteria [2] [%] | cytotoxic limit (CTL) above which epithelial cells are killed [3] | cytotoxic limit (CTL) above which epithelial cells are killed ([3]; value in brackets) [%] |
| --- | --- | --- | --- | --- | --- |
| CC(=O)N[C@@H](CS)C(=O)O [aqueous NAC, N-acetyl-L-cysteine] | 0.91 and 0.67 | migrated from the origin |  |  |  |
| polyhexamethylene biguanide hydrochloride [PHMB] |  |  | 0.01 | greater than 15 mg per liter | > 0.15 |
